Data as given in US20200345746A1, “Oxazine Derivative for Use in the Prevention of Alzheimer's Disease in at Risk Patents” (Novartis AG, priority 2016, published 2020).

Experiments:
Aβ40 = Aβ40 in APP23 mouse CSF; type: in vivo; conditions: APP23 mice; for CSF Aβ40 Mean ± SEM: 6 months
Method: Mouse CSF samples (3 μl) was diluted with 57 μL 1% Blocker A (MSD) and 25 μl were applied to the assay plate.
CSF was collected from all mice at necropsy. Samples from the baseline group were stored for approximately 6 months, and analyzed together with the rest of the samples at the end of the study. […] The reason for the high baseline values is currently not known. It is hypothesized that this is an effect of long term storage, when dissociation of oligomeric forms of Aβ may lead to higher monomeric concentrations. CSF Aβ, more than Triton TX-100 solubilized Aβ from brain extracts, represents the steady-state concentration of soluble amyloid-β that directly responds to changes in Aβ generation.

Aβ38 = assay: 3-month dose-ranging study: Aβ38 in CSF; type: in vivo, human
Excerpt: This study is listed in ClinicalTrials.gov under the NCT02576639 Identifier code.
The primary purpose of this study was to expand on previous safety and tolerability data obtained over 2-week and 4-week duration in the first in human study and thereby allow initiation of future long-term efficacy trials in subjects at risk of AD. In addition, data relevant for Pharmacokinetic/Pharmacodynamic modeling was obtained in order to support dose selection decisions for future efficacy studies.

GFAP positive astrocytes = assay: Activated astrocytes in APP23 mice (GFAP positive area); type: in vivo, mouse; conditions: for Distal GFAP+ area / Proximal GFAP+ area / Total GFAP+ area / non-plaque associated GFAP+ area / plaque-associated GFAP+ area: normalized to total area (100 * mean ± SEM)
Excerpt: Amyloid plaques were stained using a rabbit anti-Aβ primary antibody which recognizes the C-terminal part of the amyloid peptide (the antibody was raised as described in Schrader-Fischer G, Paganetti P A, 1996; Schrader-Fischer G et al., 1997). Activated astrocytes were detected using a commercial rabbit anti-GFAP (reference Z0334 from Dako Schweiz GmbH, Baar, Switzerland).
All study animals were used and brain tissue sections of 3 micrometers were freshly cut and collected on SuperFrost+ slides. The tissues sections were de-paraffinized and rehydrated under solvent-free conditions (EZprep solution) followed by antigen retrieval (demasking) performed by heat retrieval cycles for 32 min in an EDTA based buffer (CC1 solution). Subsequently, slides were blocked for 4 min using the DISCOVERY Inhibitor (reference 07017944001 (Roche)). The primary antibody diluted at 1/20,000 in antibody diluent was manually added on tissue sections and incubated for 1h at room temperature. A short post-fixation (glutaraldehyde at 0.05%) was performed before applying the multimer UltraMap-anti Rabbit HRP ready to use antibody (reference 05269717001) for 16 min.
Detection was performed using the DISCOVERY FITC® following the manufacturer's recommendations. Slides were then heat denaturated at 92° C. for 20 min before a manual application of the second primary antibody (anti-GFAP diluted at 1/2,000) and incubated for 1 h. UltraMap-anti-Rabbit HRP antibody was used again for 20 min to detect GFAP in combination with the DISCOVERY Rhodamine kit (reference 07259883001).
The slides were washed and mounted using Prolong® Gold antifade reagent (reference P36931, ThermoFisher, Switzerland) and further scanned with the Hamamatsu slide scanner instrument (NanoZoomer 2.0 HT, scanning software NDP-Scan Vers. 2.5, Hamamatsu Photonics France, Swiss Office, Solothurn, Switzerland) at the 40× objective. The scanning settings were as follows: the exposure time with the DAPI filter was set at 57 ms as well as for the FITC filter. The exposure time for the TRITC filter (detection of Rhodamine) was set at 14.2 ms.
For the beta-amyloid plaque and neuroinflammation analysis, the following sequence of steps was performed: • Slides were scanned with Hamamatsu Nanozoomer at 40× magnification. For each fluorescence labelling (DAPI, FITC and TRITC), a separate image was created • Manually outline ROIs (regions of interest) for defining cortex in brain sections for Aβ plaque assessment on the green FITC channel image, then use the resulting outline also for the other two channel images (copy resulting xml files) • Run the in-house developed ImageScope (V12.1.0.5029, Aperio Inc., USA) plug-in for creation and export of *.tif image tiles (at 10× magnification) for each of the 3 fluorescence channels
Image Batch Processing: • Obtain the combined true color image (DAPI, FITC, TRITC) for each section through accessing each individual fluorescence channel image • Segmentation of valid sample (within outlined ROI) from black unstained background • Apply adaptive thresholding technique for segmentation of objects in green channel image
(FITC-labeled Aβ plaques) • Separation of touching objects for correct subsequent individual object analysis after elimination of too small debris showing signal in the green (FITC) channel • Segmentation of TRITC-labeled objects in red channel (specific for GFAP or Iba1 staining indicating astrocytes or microglia) through morphological tophat transformation and thresholding • Feature based object classification […]

[1] = Drug-drug interaction study: PK of Compound 1 with the strong CYP3A4 inhibitor itraconazole; type: in vivo, human; conditions: healthy volunteers, with itraconazole 200 mg q.d. vs Compound 1 alone
[2] = 3-month dose-ranging study: plasma pharmacokinetics (Cmax,ss); type: in vivo, human; conditions: Day 91, 85 mg qd.

C[C@@]1(c2nc(NC(=O)c3ncc(C(F)(F)F)cc3Cl)ccc2F)CO[C@@](C)(C(F)(F)F)C(N)=N1 [Compound 1, N-(6-((3R,6R)-5-amino-3,6-dimethyl-6-(trifluoromethyl)-3,6-dihydro-2H-1,4-oxazin-3-yl)-5-fluoropyridin-2-yl)-3-chloro-5-(trifluoromethyl)picolinamide]
CSF Aβ40 Change vs vehicle (Aβ40; 0.03 g/kg food): −8.6% | CSF Aβ40 Mean ± SEM (Aβ40; 0.03 g/kg food): 31.2 ± 2.11 ng/mL | CSF Aβ40 Change vs vehicle (Aβ40; 0.3 g/kg food): −54.3% | CSF Aβ40 Mean ± SEM (Aβ40; 0.3 g/kg food): 15.6 ± 1.8 ng/mL | Aβ38 in CSF percent change from baseline, Difference (90% CI) Cmpd 1-Placebo (Aβ38; month 3, 2 mg QD): −18.17 (−21.49, −14.85) % | Aβ38 in CSF percent change from baseline, LSmean (SE) (Aβ38; month 3, 2 mg QD): −20.58 (1.397) % | Aβ38 in CSF percent change from baseline, Difference (90% CI) Cmpd 1-Placebo (Aβ38; month 3, 10 mg QD): −60.18 (−63.54, −56.83) % | Aβ38 in CSF percent change from baseline, LSmean (SE) (Aβ38; month 3, 10 mg QD): −62.60 (1.430) % | Aβ38 in CSF percent change from baseline, Difference (90% CI) Cmpd 1-Placebo (Aβ38; month 3, 35 mg QD): −80.55 (−83.83, −77.27) % | Aβ38 in CSF percent change from baseline, LSmean (SE) (Aβ38; month 3, 35 mg QD): −82.96 (1.366) % | Aβ38 in CSF percent change from baseline, Difference (90% CI) Cmpd 1-Placebo (Aβ38; month 3, 85 mg QD): −86.81 (−90.22, −83.41) % | Aβ38 in CSF percent change from baseline, LSmean (SE) (Aβ38; month 3, 85 mg QD): −89.23 (1.470) % | Distal GFAP+ area (GFAP positive astrocytes; APP23, 0.03 g/kg food): 12.16 ± 1.52 | Proximal GFAP+ area (GFAP positive astrocytes; APP23, 0.03 g/kg food): 4.11 ± 0.86 | Total GFAP+ area (GFAP positive astrocytes; APP23, 0.03 g/kg food): 18.56 ± 2.59 | non-plaque associated GFAP+ area (GFAP positive astrocytes; APP23, 0.03 g/kg food): 16.27 ± 2.19 | plaque-associated GFAP+ area (GFAP positive astrocytes; APP23, 0.03 g/kg food): 2.29 ± 0.47 | Distal GFAP+ area, change vs vehicle (GFAP positive astrocytes; APP23, 0.03 g/kg vs vehicle): −8.9% | Proximal GFAP+ area, change vs vehicle (GFAP positive astrocytes; APP23, 0.03 g/kg vs vehicle): −28.0% | Total GFAP+ area, change vs vehicle (GFAP positive astrocytes; APP23, 0.03 g/kg vs vehicle): −16.9% | non-plaque associated GFAP+ area, change vs vehicle (GFAP positive astrocytes; APP23, 0.03 g/kg vs vehicle): −14.6% | plaque-associated GFAP+ area, change vs vehicle (GFAP positive astrocytes; APP23, 0.03 g/kg vs vehicle): −29.8% | Distal GFAP+ area (GFAP positive astrocytes; APP23, 0.3 g/kg food): 9.72 ± 1.65 | Proximal GFAP+ area (GFAP positive astrocytes; APP23, 0.3 g/kg food): 1.91 ± 0.51 | Total GFAP+ area (GFAP positive astrocytes; APP23, 0.3 g/kg food): 12.79 ± 2.33 | non-plaque associated GFAP+ area (GFAP positive astrocytes; APP23, 0.3 g/kg food): 11.63 ± 2.06 | plaque-associated GFAP+ area (GFAP positive astrocytes; APP23, 0.3 g/kg food): 1.16 ± 0.32 | Distal GFAP+ area, change vs vehicle (GFAP positive astrocytes; APP23, 0.3 g/kg vs vehicle): −27.2% | Proximal GFAP+ area, change vs vehicle (GFAP positive astrocytes; APP23, 0.3 g/kg vs vehicle): −66.6% | Total GFAP+ area, change vs vehicle (GFAP positive astrocytes; APP23, 0.3 g/kg vs vehicle): −42.7% | non-plaque associated GFAP+ area, change vs vehicle (GFAP positive astrocytes; APP23, 0.3 g/kg vs vehicle): −39.0% | plaque-associated GFAP+ area, change vs vehicle (GFAP positive astrocytes; APP23, 0.3 g/kg vs vehicle): −64.3% | increase of mean AUC of Compound 1 [1]: 2-3 fold | increase of mean Cmax of Compound 1 [1]: 25% | Cmax, ss, Mean [2]: 602 ng/mL
